Data from US20070219231A1, “Quinolonecarboxylic acid compounds, preparation methods and pharmaceutical uses thereof” (priority 2005, published 2007).

Tests used:
Test in all cases: MIC, two-fold plate dilution method
Format in all cases: cell-based
S. aureus ATTC 25923 = system: S. aureus ATTC 25923; design: unit not given here; conditions: S. aureus ATTC 25923, Gram-positive; Muener-Hinton medium
Excerpt: (§1) Two-fold plate dilution method is used for determination of activity, with Muener-Hinton medium (DIFCO) as the culture medium and clinically isolated pathogenic strain, quality control strain and standard strain (provided by National Institute for the Control of Pharmaceutical and Biological Products) as test strains.

S. pneumoniae 98 = system: S. pneumoniae 98; design: unit not given here; conditions: S. pneumoniae 98, Gram-positive; Muener-Hinton medium
Excerpt: (§2) . The pharmaceutically acceptable salts or hydrates thereof have the same antibacterial activity.
as §1

E. coli 26 = conditions: E. coli 26, Gram-negative; Muener-Hinton medium
Excerpt: as §2, §1

E. coli ATTC 25922 = system: E. coli ATTC 25922; design: unit not given here; conditions: E. coli ATTC 25922, Gram-negative; Muener-Hinton medium
Excerpt: as §2, §1

S. pneumoniae 70 = system: S. pneumoniae 70; design: unit not given here; conditions: S. pneumoniae 70, Gram-positive; Muener-Hinton medium
Excerpt: as §2, §1

K. pneumoniae 14 = system: K. pneumoniae 14; design: unit not given here; conditions: K. pneumoniae 14, Gram-negative; Muener-Hinton medium
Excerpt: as §2, §1

K. pneumoniae 7 = conditions: K. pneumoniae 7, Gram-negative; Muener-Hinton medium
Excerpt: as §2, §1

Enterococcus 755 = conditions: Enterococcus 755, Gram-positive; Muener-Hinton medium
Excerpt: as §2, §1

| SMILES | MIC (S. aureus ATTC 25923) | MIC (S. pneumoniae 98) | MIC (E. coli 26) [g/mL] | MIC (E. coli ATTC 25922) | MIC (S. pneumoniae 70) | MIC (K. pneumoniae 14) | MIC (K. pneumoniae 7) [g/mL] | MIC (Enterococcus 755) [g/mL] |
| --- | --- | --- | --- | --- | --- | --- | --- | --- |
| Cl.O=C(O)c1cn(C2CC2)c2c(OC(F)F)c(N3C[C@@H]4CCCN[C@@H]4C3)c(F)cc2c1=O (racemic) [Embodiment 15, 1-Cyclopropyl-8-difluoromethoxyl-7-[cis-2,8-diazabicyclo[4,3,0]nonane-8-yl]-6-fluoro-1,4-dihydro-4-oxoquinoline-3-carboxylic acid hydrochloride] | 0.12 | 0.12 |  |  |  |  |  |  |
| Nc1c(F)c(N2C[C@@H]3CCCN[C@@H]3C2)c(OC(F)F)c2c1c(=O)c(C(=O)O)cn2C1CC1 (relative stereo) [Embodiment 21, 5-Amino-1-cyclopropyl-8-difluoromethoxyl-7-(cis-2,8-diazabicyclo[4,3,0]nonane-8-yl)-6-fluoro-1,4-dihydro-4-oxoquinoline-3-carboxylic acid] |  |  | <0.00 |  |  |  |  |  |
| Cl.O=C(O)c1cn(C2CC2)c2c(OC(F)F)c(N3C[C@@H]4CCCN[C@@H]4C3)c(F)cc2c1=O [Embodiment 13, 1-cyclopropyl-8-difluoromethoxyl-7-[(1S,6S)-2,8-diazabicyclo[4,3,0]nonane-8-yl]-6-fluoro-1,4-dihydro-4-oxoquinoline-3-carboxylic acid hydrochloride] |  | 0.01 | 0.01 | 0.01 | 0.12 | 0.01 | 0.01 |  |
| Cl.O=C(O)c1cn(C2CC2)c2c(OC(F)F)c(N3C[C@H]4CCCN[C@H]4C3)c(F)cc2c1=O [Embodiment 14, 1-cyclopropyl-8-difluoromethoxyl-7-[(1R,6R)-2,8-diazabicyclo[4,3,0]nonane-8-yl]-6-fluoro-1,4-dihydro-4-oxoquinoline-3-carboxylic acid hydrochloride] |  | 0.01 |  | 0.01 |  |  |  |  |
| Cl.Nc1c(F)c(N2C[C@@H]3CCCN[C@@H]3C2)c(OC(F)F)c2c1c(=O)c(C(=O)O)cn2C1CC1 [Embodiment 17, 5-amino-1-cyclopropyl-8-difluoromethoxyl-7-[(1S,6S)-2,8-diazabicyclo[4,3,0]nonane-8-yl]-6-fluoro-1,4-dihydro-4-oxoquinoline-3-carboxylic acid hydrochloride] |  | 0.01 | 0.01 | 0.01 | 0.01 | 0.01 | 0.01 | 0.01 |
| Cl.Nc1c(F)c(N2C[C@H]3CCCN[C@H]3C2)c(OC(F)F)c2c1c(=O)c(C(=O)O)cn2C1CC1 [Embodiment 18, 5-Amino-1-cyclopropyl-8-difluoromethoxyl-7-[(1R,6R)-2,8-diazabicyclo[4,3,0]nonane-8-yl]-6-fluoro-1,4-dihydro-4-oxoquinoline-3-carboxylic acid hydrochloride] |  | 0.12 | 0.01 | 0.01 |  | 0.01 | 0.01 |  |
